Patent US7041647B2, “Synthetic peptide having an ionophoric and antimicrobial activity” (Corporacion Para Investigaciones Biologicas, priority 2003, dated 2006)
No end group written: not given here.

Key:
[1] = tested on: inner membrane of rat liver mitochondria; assay: Mitochondrial swelling in isotonic media (ionophoric activity); format: biochemical; details: pH 7.4
Method: FIG. 1 Ionophoric activity of P1 in the inner membrane of rat liver mitochondria. The mitochondria at a concentration of 0.5 mg/ml of protein were incubated in the media 125 mM KNO3, 5 mM HEPES-tris, pH 7.4 (Panel A) and 125 mM NH4NO3, 5 mM HEPES-tris, pH 7.4 (Panel B), both media were supplemented with 2.5 μM rotenone and 1 μM oligomycin (RO), added just after the mitochondria. The peptide P1 was added at the following final concentrations: 1.8 μM of P1 (curves a); 0.36 μM of P1 (curves b); 0.18 μM of P1 (curves c); 0.18 μM of P1 plus 2.5 mM of succinate (curves d); 0.12 μM of valinomycin (curve e), and 2 μM of FCCP, (curve f). In Panel C, the permeability of the inner mitochondrial membrane induced by the peptide P1 was evaluated for the following cations: H^+, K^+, Na^+, and Tris^+. […]
The mitochondria were isolated and prepared as described above. […] The mitochondrial swelling was spectrophotometrically monitored at 540 nm (Turner Spectrophotometer, model SP-850, USA, modified with a magnetic mini-stirrer). The curves were recorded in a graphical recorder (Linseis model L250E, USA), scanned and then processed in the program Adobe Photoshop V5.0. […]

[2] = tested on: Escherichia coli (ATCC 25922); details: ATCC 25922, 2 h, 7.1 μM
[3] = tested on: Clostridium perfringens (ATCC 13124); details: ATCC 13124, 2 h, 7.1 μM
[4] = tested on: Streptococcus pneumoniae (ATCC 49619); details: ATCC 49619, 2 h, 7.1 μM
[5] = Solubility in aqueous solutions; format: physicochemical
Source text: The peptides were synthesized by the method of solid phase synthesis (Merrifield B. 1963. Solid Phase Peptide Synthesis, Journal American Chemical Society. 85: 2149–2154; and Houghten R. A. 1985. General methods for the rapid solid phase synthesis of large numbers of peptides: specificity of antigen antibody interaction at the level of individual amino acids. Proc. Natl. Acad. Sci. USA. 82: 5131–5135.) under the methods of good manufacture practices (GMP). A resin p-methyl benzidrylamine (MBHA) (0.7 meq/g), t-boc amino acids (Bachem, USA) and the process of high-low cleavage were used in the synthesis. (Andreu D, Merrifield RB, Steiner H, Boman HG. 1983. Solid-phase synthesis of Cecropin A and Related Peptides. Proc. Natl. Acad. Sci USA 80: 6475–6479.). Once synthesized, the peptides were extracted with 10% acetic acid in water. The peptides were purified by high pressure liquid chromatography (HPLC), in a reverse phase column, and they were analyzed by means of mass spectrometry (Maldi-Tof). The peptides were lyophilized and kept in powder at 4° C. until its use.

[6] = tested on: human red blood cells; assay: Hemolytic activity in human erythrocytes; format: cell-based; details: for Percentage of hemolysis, X ± SD: hematocryte 0.5%, 1 h room temperature
Method: FIG. 5 Effect of P1 in human red blood cells; Human red blood cells were resuspended to a hematocryte of 0.5% in the isotonic solutions indicated in materials and methods. The peptide P1 was added at different concentrations to the cellular suspensions and incubated for 1 hour at room temperature. The supernatants were obtained by centrifugation of the suspensions at 10000 rpm for 5 min at 4° C. (International Equipment Company IEC, Centra MP4R; rotor 851), the absorbance of the supernatants was registered at 415 nm with a spectrophotometer (BIORAD). The results were expressed as percentage of hemolysis relative to the maximum hemolysis (erythrocytes hemolysed in 0.01% Tween-20).
FIG. 6 The hemolysis caused by P1 in the erythrocytes decreases with an increase in the hematocryte; human red blood cells were resuspended at different hematocrytes: 0.5%, 2.5% and 10% in 150 mM NaCl, 5 mM KCl, 5 mM Glucose, 10 mM HEPES-tris, pH 7.4. Peptide P1 was added at different concentrations in the cellular suspension and incubated during 1 h at room temperature. The supernatants were obtained by centrifugation at 10000 rpm for 5 min at 4° C. and the absorbance at 415 nm was determined with a BIORAD spectrophotometer. The results were expressed as percentage of hemolysis relative to the maximum hemolysis (erythrocytes lysed in 0.01% Tween-20).
The hemolytic activity of peptide P1 was determined in heparinized human red blood cells from a volunteer (final concentration of heparin 20.4 U/ml), and washed three times in 150 mM NaCl, 9 mM Na2PO4, pH 7.3, at room temperature. The red blood cells were resuspended to an hematocryte of 0.5% in isotonic solutions 150 mM NaCl, 5 mM KCl, 5 mM Glucose, 10 mM HEPES-tris, pH 7.4; 155 mM KCl, 5 mM Glucose, 10 mM HEPES-tris, pH 7.4; 300 mM saccharose, 5 mM KCl, 5 mM Glucose, 10 mM HEPES-tris, pH 7.4; 150 mM polyethyleneglycol-1500 (PEG-1500), 5 mM KCl, 5 mM Glucose, 10 mM HEPES-tris, pH 7.4. […] The supernatants were recovered by centrifugation of the cellular suspension at 10000 rpm for 5 min at 4° C. and the absorbance at 415 nm was determined in a BIORAD spectrophotometer. The averages and standard deviations were calculated and the data were introduced to the program SigmaPlot V4.0 in order to generate the corresponding graphs (FIGS. 3 and 4).

[7] = tested on: Bacteroides fragilis (ATCC 25285); details: ATCC 25285, 2 h, 7.1 μM
[8] = tested on: Staphylococcus aureus (ATCC 25923); details: ATCC 25923, 2 h, 7.1 μM

Compound: N#CC(C#N)=NNc1ccc(OC(F)(F)F)cc1 [FCCP, carbonyl-cyanide-p-trifluoromethoxy phenylhydrazone]
- Speed of mitochondrial swelling (slope) ([1]; 2 μM FCCP, medium 125 mM NH4NO3, 5 mM HEPES-tris, FIG. 1 Panel B curve f): 3.5

Compound: CC(C)[C@@H]1NC(=O)[C@H](C)OC(=O)[C@@H](C(C)C)NC(=O)[C@@H](C(C)C)OC(=O)[C@H](C(C)C)NC(=O)[C@H](C)OC(=O)[C@@H](C(C)C)NC(=O)[C@@H](C(C)C)OC(=O)[C@H](C(C)C)NC(=O)[C@H](C)OC(=O)[C@@H](C(C)C)NC(=O)[C@@H](C(C)C)OC1=O [valinomycin]
- Rate of mitochondrial swelling (slope) ([1]; 0.12 μM valinomycin, medium 125 mM KNO3, 5 mM HEPES-tris, FIG. 1 Panel A curve e): 1.4

Compound: VAPIAKYLATALAKWALKQGFAKLKS-NH2 (C-terminus assumed) [P1]
- % of growth inhibition [2]: 100%
- % of growth inhibition [3]: 100%
- % of growth inhibition [4]: 100%
- Solubility in aqueous solutions [5]: highly soluble
- Percentage of hemolysis, X ± SD ([6]; 0.36 μM P1, isotonic medium KCl 150 mM): 17.25 ± 1.05%
- Percentage of hemolysis, X ± SD ([6]; 0.36 μM P1, isotonic medium NaCl 150 mM): 3.75 ± 0.05%
- Percentage of hemolysis, X ± SD ([6]; 0.36 μM P1, isotonic medium PEG-1500 150 mM): 0.25 ± 0.07%
- Percentage of hemolysis, X ± SD ([6]; 0.36 μM P1, isotonic medium Saccharose 150 mM): 57.5 ± 0.73%
- Permeability order of hemolytic activity by isotonic medium ([6]; 0.36 μM peptide, order disappears at 3.6 μM): saccharose>KCl>NaCl
- Percentage of hemolysis, X ± SD ([6]; 3.6 μM P1, isotonic medium KCl 150 mM): 64.25 ± 1.23%
- Percentage of hemolysis, X ± SD ([6]; 3.6 μM P1, isotonic medium NaCl 150 mM): 59.25 ± 1.15%
- Percentage of hemolysis, X ± SD ([6]; 3.6 μM P1, isotonic medium PEG-1500 150 mM): 2.75 ± 0.3%
- Percentage of hemolysis, X ± SD ([6]; 3.6 μM P1, isotonic medium Saccharose 150 mM): 75.5 ± 10.38%
- Hemolytic activity with increased hematocryte ([6]; hematocryte increased at 10%, NaCl medium): decreases dramatically
- Hemolytic activity in a physiological solution ([6]; hematocryte is high): insignificant
- Hemolytic activity (in words) ([6]; isotonic medium PEG-1500): does not show hemolytic activity
- % of growth inhibition [7]: 100%
- % of growth inhibition [8]: 100%
